Tests used:
[1] = test system: orthotopic 4T1-Luc breast tumors; assay: Whole-body NIR fluorescence imaging of accumulation and clearance in 4T1 tumor bearing mice; type: in vivo; details: i.v.
Procedure: • (i) Bacteriochlorophyll Derivatives—The Bchl derivatives and RGD-conjugates thereof were provided by Steba Biotech (Rehovot, Israel). […] Concentration was verified by spectrophotometric measurement. STL-7012 was provided as dipotassium salt. Working solution was prepared by dissolving STL-7012 K^+ salt in 5% mannitol solution (1 mg/ml). […] WST11 was supplied as a powder and kept in the dark at −20° C. Stock was prepared by dissolving WST11 in DDW containing 5% glucose and 0.67% mannitol, aliquoted and lyophilized. Working solution was reconstituted with DDW and the concentration of solution was confirmed spectrophotometrically. Alternatively, Clinical WST11 (batch: P00611, and 10-130611) was supplied as lyophilized formulation. Material was dissolved in 5% dextrose, aliquoted and stored at −20° C. […] Aliquots were thawed, diluted with saline to a desired concentration and used on the same day at a dose of 75 mg/kg. […] Whole body imaging of luciferase-transfected tumors and metastases were recorded five minutes following 75 mg Kg^−1 intraperitoneal (i.p.) injection of D-luciferin with respective filter sets. • (vi) PDT treatment protocol: 4T1-Luc cells were grafted in the mammary pad of Balb/c mice. […] Ablation of primary tumors was assessed every 7 days by imaging the tumor's luciferase-mediated bioluminescence signal, using IVIS.

[2] = test system: splenic immune cells of 4T1-bearing mice; assay: FACS profile of splenic immune cell populations in 4T1-bearing mice after STL-6014 PDT and Gemzar; type: in vivo
Procedure: (§1) • (i) Bacteriochlorophyll Derivatives—The Bchl derivatives and RGD-conjugates thereof were provided by Steba Biotech (Rehovot, Israel). […] Concentration was verified by spectrophotometric measurement. STL-7012 was provided as dipotassium salt. Working solution was prepared by dissolving STL-7012 K^+ salt in 5% mannitol solution (1 mg/ml). […] WST11 was supplied as a powder and kept in the dark at −20° C. Stock was prepared by dissolving WST11 in DDW containing 5% glucose and 0.67% mannitol, aliquoted and lyophilized. Working solution was reconstituted with DDW and the concentration of solution was confirmed spectrophotometrically. Alternatively, Clinical WST11 (batch: P00611, and 10-130611) was supplied as lyophilized formulation. Material was dissolved in 5% dextrose, aliquoted and stored at −20° C. At the day of treatment the aliquot was thawed, filtered and the concentration of solution was confirmed spectrophotometrically. • (ii) Chemotherapeutic drugs preparation and storage—Gemcitabine (GEM, Gemzar®, Lilly) was purchased from a local pharmacy as a powder, dissolved in saline to a concentration of 38 mg/ml, aliquoted and stored at −20° C. Aliquots were thawed, diluted with saline to a desired concentration and used on the same day at a dose of 75 mg/kg. Cyclophosphamide (CTX, Endoxan®, Baxter Oncology Gmbh, Germany) was purchased from a local pharmacy. A stock solution of 20 mg/ml was prepared by dissolving in 0.9% NaCl, aliquoted and stored at −20° C. Aliquots were thawed, diluted with saline if needed to a desired concentration and used on the same day prepared at indicated doses. • (iii) Murine cell lines—Mammary luciferase (luc)-labeled 4T1 cell line (4T1-Luc) was a kind gift from Dr. Zvi Granot (Faculty of Medicine, The Hebrew University of Jerusalem, Israel); melanoma B16-F10 cell line was obtained from the American Type Culture Collection (ATCC, Manassas, Va.); bladder MB49 cell line was a kind gift from James Allison (MSKCC, New York, USA), and luc-labeled MB49-cell line was established using the murine stem cell virus (MSCV)-puromycin-luc-GFP construct (kindly provided by Dr. Emily Cheng, Human Oncology and Pathogenesis Program, MSKCC). 4T1 and MB49 cells were maintained in DMEM medium and B16-F10 cells in RPMI medium supplemented with 1 mmol/L sodium pyruvate, 10% fetal calf serum (FCS), 250 μg/ml hygromycin, 0.06 mg/ml penicillin and 0.1 mg/ml streptomycin. The cells were grown as monolayer at 37° C. in a humidified atmosphere (5% CO2, 95% air). • (iv) Murine tumor models—Female, Balb/c mice (6-8 week old) were grafted either subcutaneously (s.c.) into the right hind leg or orthotopically with 1×10^6 4T1 cells suspended in 50 or 1000 PBS. For the rechallenge study, 2×10^5 4T1 cells were orthotopically grafted. For bladder cancer model, 5×10^4 of MB49 or MB49-luciferase cell line were s.c. injected into the right flank of C57B/6 male mice (7-8 weeks old, Taconic, Hudson, N.Y.) 15 days prior to VTP treatment. For the efficacy study of VTP in immune compromised mice, the same number of MB49 cells was injected in the flank of Rag^−/− on C57B/6 background or C57B/6 male mice (7-8 week old, Jackson Laboratory, Bar Harbor, Me.). […] Whole body imaging of luciferase-transfected tumors and metastases were recorded five minutes following 75 mg Kg^−1 intraperitoneal (i.p.) injection of D-luciferin with respective filter sets. • (vi) PDT treatment protocol: 4T1-Luc cells were grafted in the mammary pad of Balb/c mice. […]

[3] = test system: orthotopic 4T1-Luc tumors; assay: STL-6014 PDT and metronomic Gemzar in mice bearing 4T1-Luc tumors in the mammary pad (Scheme 1): primary tumor, survival, lung metastases, re-challenge; type: in vivo, Balb/c mice
Procedure: as §1

[4] = test system: Foxp3+ Treg, CD8+ T cells, G-MDSC/neutrophils; type: in vivo
Procedure: (§2) • (i) Bacteriochlorophyll Derivatives—The Bchl derivatives and RGD-conjugates thereof were provided by Steba Biotech (Rehovot, Israel). […] Concentration was verified by spectrophotometric measurement. STL-7012 was provided as dipotassium salt. Working solution was prepared by dissolving STL-7012 K^+ salt in 5% mannitol solution (1 mg/ml). […] WST11 was supplied as a powder and kept in the dark at −20° C. Stock was prepared by dissolving WST11 in DDW containing 5% glucose and 0.67% mannitol, aliquoted and lyophilized. Working solution was reconstituted with DDW and the concentration of solution was confirmed spectrophotometrically. Alternatively, Clinical WST11 (batch: P00611, and 10-130611) was supplied as lyophilized formulation. Material was dissolved in 5% dextrose, aliquoted and stored at −20° C. […] Aliquots were thawed, diluted with saline to a desired concentration and used on the same day at a dose of 75 mg/kg. Cyclophosphamide (CTX, Endoxan®, Baxter Oncology Gmbh, Germany) was purchased from a local pharmacy. A stock solution of 20 mg/ml was prepared by dissolving in 0.9% NaCl, aliquoted and stored at −20° C. Aliquots were thawed, diluted with saline if needed to a desired concentration and used on the same day prepared at indicated doses. • (iii) Murine cell lines—Mammary luciferase (luc)-labeled 4T1 cell line (4T1-Luc) was a kind gift from Dr. Zvi Granot (Faculty of Medicine, The Hebrew University of Jerusalem, Israel); melanoma B16-F10 cell line was obtained from the American Type Culture Collection (ATCC, Manassas, Va.); bladder MB49 cell line was a kind gift from James Allison (MSKCC, New York, USA), and luc-labeled MB49-cell line was established using the murine stem cell virus (MSCV)-puromycin-luc-GFP construct (kindly provided by Dr. Emily Cheng, Human Oncology and Pathogenesis Program, MSKCC). 4T1 and MB49 cells were maintained in DMEM medium and B16-F10 cells in RPMI medium supplemented with 1 mmol/L sodium pyruvate, 10% fetal calf serum (FCS), 250 μg/ml hygromycin, 0.06 mg/ml penicillin and 0.1 mg/ml streptomycin. The cells were grown as monolayer at 37° C. in a humidified atmosphere (5% CO2, 95% air). • (iv) Murine tumor models—Female, Balb/c mice (6-8 week old) were grafted either subcutaneously (s.c.) into the right hind leg or orthotopically with 1×10^6 4T1 cells suspended in 50 or 1000 PBS. […] Whole body imaging of luciferase-transfected tumors and metastases were recorded five minutes following 75 mg Kg^−1 intraperitoneal (i.p.) injection of D-luciferin with respective filter sets. • (vi) PDT treatment protocol: 4T1-Luc cells were grafted in the mammary pad of Balb/c mice. […] Ablation of primary tumors was assessed every 7 days by imaging the tumor's luciferase-mediated bioluminescence signal, using IVIS.

[5] = test system: s.c. 4T1-luc breast tumors; assay: WST11 VTP with or without single dose CTX in mice bearing s.c. 4T1-luc tumors in the hind leg (Scheme 4); type: in vivo, Balb/c mice; details: CTX 50 or 150 mg/kg alone; WST11 VTP at low light intensity (100 mW/cm^2) alone; or combination
Procedure: as §2

Compound: CC[C@H]1c2cc3[nH]c(c(CC(=O)OC)c4nc(cc5[nH]c(cc(n2)[C@@H]1C)c(C(C)=O)c5C)[C@@H](C)[C@@H]4CCC(=O)O)c(C(=O)NCCS(=O)(=O)[O-])c3C.[K+] [STL-7012, 3^1-oxo-15-methoxycarbonylmethyl-Rhodobacteriochlorin 13^1-(2-sulfoethyl) amide dipotassium salt]
- clearance [1]: cleared through the liver within a few hours of injection
- accumulation in the tumor (NIR fluorescence) ([1]; STL-6014 7.5 mg/kg, STL-7012 9.5 mg/kg): did not accumulate in the tumor

Compound: 3^1-oxo-15-methoxycarbonylmethyl-Rhodobacteriochlorin 13^1-(2-sulfoethyl)amide-17^3-(cycloRGDfK) amide potassium salt [STL-6014]
- percentage of G-MDSC/neutrophils and M-MDSC in spleen compared to control ([2]; first week post treatment): significantly reduced
- effect on Treg populations in spleen compared with controls ([2]; mouse, in vivo): Much smaller effects
- survival compared to control (Kaplan-Meier) ([3]; 120 days follow up, monotherapy): did not show any significant survival difference
- animals with primary tumor regrowth ([3]; day 30 post treatment): 82%

Compound: O=P1(N(CCCl)CCCl)NCCCO1 (stereo not shown) [CTX, Cyclophosphamide]
- number of cells in the draining lymph nodes and spleens ([4]; low dose CTX three days prior VTP, on the VTP day): reduced
- tumor infiltration by regulatory Foxp3+ T cells ([4]; three days after CTX administration): significantly reduces
- G-MDSC/neutrophils in the tumor microenvironment ([4]; three days post low dose CTX (VTP day)): reduced
- primary tumor growth [5]: unable to suppress primary tumor growth
